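Grown in 96-well plates, cells were treated for 48 hours with each compound at five concentrations. Insufficient inhibition: endpoint recorded as highest concentration tested. Here, GI50 denotes the concentration required for 50% inhibition of growth.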 The source made the active and inactive calls. No stated cut-off is given here; in the data, active = GI50 up to about 1.1 µM and inactive = higher.
Assays:
Assay in all cases: growth of human tumour cells (NCI), 48 h
786-0 = system: 786-0
A498 = system: A498
A549 = system: A549
ACHN = system: ACHN
BT-549 = system: BT-549
CAKI-1 = system: CAKI-1
CCRF-CEM = system: CCRF-CEM
COLO 205 = system: COLO 205
DU-145 = system: DU-145
EKVX = system: EKVX
HCT-116 = system: HCT-116
HCT-15 = system: HCT-15
HL-60 = system: HL-60
HOP-62 = system: HOP-62
HOP-92 = system: HOP-92
HT-29 = system: HT-29
Hs-578T = system: Hs-578T
IGROV-1 = system: IGROV-1
K562 = system: K562
KM12 = system: KM12
LOX IMVI = system: LOX IMVI
M14 = system: M14
MCF7 = system: MCF7
MDA-MB-231 = system: MDA-MB-231
MDA-MB-435 = system: MDA-MB-435
MOLT-4 = system: MOLT-4
Malme-3M = system: Malme-3M
NCI-H23 = system: NCI-H23
NCI-H460 = system: NCI-H460
NCI-H522 = system: NCI-H522
NCI/ADR-RES = system: NCI/ADR-RES
OVCAR-3 = system: OVCAR-3
OVCAR-4 = system: OVCAR-4
OVCAR-8 = system: OVCAR-8
PC-3 = system: PC-3
RPMI-8226 = system: RPMI-8226
RXF 393 = system: RXF 393
SF-268 = system: SF-268
SF-295 = system: SF-295
SF-539 = system: SF-539
SK-MEL-28 = system: SK-MEL-28
SK-MEL-2 = system: SK-MEL-2
SK-MEL-5 = system: SK-MEL-5
SK-OV-3 = system: SK-OV-3
SN12C = system: SN12C
SNB-19 = system: SNB-19
SNB-75 = system: SNB-75
SW-620 = system: SW-620
T47D = system: T47D
TK-10 = system: TK-10
U-251 = system: U-251
UACC-257 = system: UACC-257
UACC-62 = system: UACC-62
UO-31 = system: UO-31
HCC 2998 = system: HCC 2998
MDA-N = system: MDA-N
NCI-H226 = system: NCI-H226
OVCAR-5 = system: OVCAR-5
SR = system: SR

Measured: GI50

O=C1C=Cc2cscc21
inactive: 786-0 16.4 µM | A498 > 100 µM | A549 62.7 µM | ACHN 34.5 µM | BT-549 53.7 µM | CAKI-1 27.4 µM | CCRF-CEM 22.6 µM | COLO 205 47.4 µM | DU-145 34.3 µM | EKVX 46.5 µM | HCT-116 15.3 µM | HL-60 29 µM | HOP-62 > 100 µM | HOP-92 > 100 µM | HT-29 35.5 µM | Hs-578T > 100 µM | IGROV-1 32.4 µM | K562 31.9 µM | KM12 71.4 µM | LOX IMVI 35.8 µM | M14 26.4 µM | MCF7 15.3 µM | MDA-MB-231 31.8 µM | MDA-MB-435 48.5 µM | MOLT-4 14.3 µM | Malme-3M 27 µM | NCI-H23 21.2 µM | NCI-H460 > 100 µM | NCI-H522 19.6 µM | NCI/ADR-RES 28.8 µM | OVCAR-3 21.5 µM | OVCAR-4 81.3 µM | OVCAR-8 32.6 µM | PC-3 42 µM | RPMI-8226 20.4 µM | RXF 393 16.6 µM | SF-268 92.5 µM | SF-295 49.4 µM | SF-539 > 100 µM | SK-MEL-28 69.8 µM | SK-MEL-2 79.1 µM | SK-MEL-5 81.7 µM | SK-OV-3 > 100 µM | SN12C 28.1 µM | SNB-19 78.2 µM | SNB-75 42.5 µM | SW-620 33.3 µM | T47D 27.5 µM | TK-10 42.5 µM | U-251 37.9 µM | UACC-257 > 100 µM | UACC-62 > 100 µM | UO-31 26.2 µM
22.7 µM: HCT-15

COc1ccc2c3c1OC1C(OC)(OC)C=C[C@@]4(Br)[C@@H](C2)N(CC2CC2)CC[C@]314 (some centres not stated)
> 100 µM: HCT-15
inactive: 786-0 > 100 µM | A498 > 100 µM | A549 95.7 µM | ACHN > 100 µM | CAKI-1 59 µM | CCRF-CEM 86.9 µM | COLO 205 31.8 µM | DU-145 > 100 µM | EKVX > 100 µM | HCC 2998 > 100 µM | HCT-116 44 µM | HL-60 > 100 µM | HOP-62 > 100 µM | HOP-92 23.8 µM | HT-29 61.9 µM | Hs-578T 41.7 µM | IGROV-1 62.2 µM | K562 52.8 µM | KM12 > 100 µM | LOX IMVI 87.9 µM | M14 27.1 µM | MCF7 52.1 µM | MDA-MB-231 45.6 µM | MDA-MB-435 61.2 µM | MDA-N 49.5 µM | MOLT-4 80.7 µM | Malme-3M 37.1 µM | NCI-H226 58.5 µM | NCI-H23 71.3 µM | NCI-H460 62.7 µM | NCI-H522 21 µM | NCI/ADR-RES > 100 µM | OVCAR-3 46.7 µM | OVCAR-4 43.7 µM | OVCAR-5 > 100 µM | OVCAR-8 61.4 µM | PC-3 99.1 µM | RPMI-8226 > 100 µM | RXF 393 76.4 µM | SF-268 32.1 µM | SF-295 > 100 µM | SF-539 > 100 µM | SK-MEL-28 > 100 µM | SK-MEL-2 38.5 µM | SK-MEL-5 37.6 µM | SK-OV-3 > 100 µM | SN12C > 100 µM | SNB-19 > 100 µM | SNB-75 96.4 µM | SR > 100 µM | SW-620 33.7 µM | T47D 97.9 µM | TK-10 > 100 µM | U-251 > 100 µM | UACC-257 69.8 µM | UACC-62 68.5 µM | UO-31 35.2 µM

O=C(Nc1ccccc1C(=O)NCc1ccccc1)/C(=C/c1ccccc1)NC(=O)c1ccccc1
> 100 µM: HCT-15
inactive: 786-0 47.6 µM | A498 > 100 µM | A549 > 100 µM | ACHN > 100 µM | BT-549 > 100 µM | CAKI-1 > 100 µM | CCRF-CEM > 100 µM | COLO 205 > 100 µM | DU-145 > 100 µM | EKVX > 100 µM | HCC 2998 > 100 µM | HCT-116 > 100 µM | HL-60 > 100 µM | HOP-62 > 100 µM | HOP-92 > 100 µM | HT-29 > 100 µM | Hs-578T 63.1 µM | IGROV-1 > 100 µM | K562 > 100 µM | KM12 > 100 µM | LOX IMVI > 100 µM | M14 > 100 µM | MCF7 > 100 µM | MDA-MB-231 > 100 µM | MDA-MB-435 > 100 µM | MOLT-4 80.7 µM | NCI-H226 > 100 µM | NCI-H23 > 100 µM | NCI-H522 > 100 µM | NCI/ADR-RES 62.2 µM | OVCAR-3 > 100 µM | OVCAR-4 49.3 µM | OVCAR-5 > 100 µM | OVCAR-8 > 100 µM | PC-3 > 100 µM | RPMI-8226 > 100 µM | RXF 393 > 100 µM | SF-268 > 100 µM | SF-295 > 100 µM | SF-539 > 100 µM | SK-MEL-28 > 100 µM | SK-MEL-2 > 100 µM | SK-MEL-5 > 100 µM | SK-OV-3 > 100 µM | SN12C > 100 µM | SNB-19 > 100 µM | SNB-75 92.7 µM | SR > 100 µM | SW-620 > 100 µM | T47D > 100 µM | TK-10 > 100 µM | U-251 > 100 µM | UACC-257 > 100 µM | UACC-62 > 100 µM | UO-31 > 100 µM

CCOC(=O)c1c(N2CCOCC2)[nH]c(=O)c(C(c2c(Cl)cccc2Cl)c2c(O)c(C(=O)OCC)c(N3CCOCC3)[nH]c2=O)c1O
inactive: 786-0 2.67 µM | A498 8.71 µM | A549 18.2 µM | ACHN 4.54 µM | BT-549 7.76 µM | CAKI-1 2.31 µM | CCRF-CEM 1.64 µM | COLO 205 4.34 µM | DU-145 12.2 µM | EKVX 18.9 µM | HCC 2998 19.4 µM | HCT-116 4.39 µM | HL-60 1.96 µM | HOP-62 16.1 µM | HOP-92 2.09 µM | HT-29 3.56 µM | Hs-578T 4.86 µM | IGROV-1 4.09 µM | K562 2.3 µM | KM12 16.9 µM | LOX IMVI 2.91 µM | M14 2.4 µM | MCF7 2.47 µM | MDA-MB-231 12.3 µM | MDA-MB-435 3.48 µM | MOLT-4 2.07 µM | Malme-3M 2.49 µM | NCI-H226 13.8 µM | NCI-H23 7.19 µM | NCI-H460 21.4 µM | NCI-H522 1.83 µM | NCI/ADR-RES 18 µM | OVCAR-3 3.48 µM | OVCAR-4 9.84 µM | OVCAR-5 14.4 µM | OVCAR-8 8.17 µM | PC-3 15.5 µM | RPMI-8226 2.18 µM | RXF 393 2.19 µM | SF-268 8.22 µM | SF-295 16 µM | SF-539 5.11 µM | SK-MEL-28 1.93 µM | SK-MEL-2 4.74 µM | SK-MEL-5 4.55 µM | SK-OV-3 11.2 µM | SN12C 4.92 µM | SNB-19 7.45 µM | SNB-75 6.7 µM | SR 3.97 µM | SW-620 1.7 µM | T47D 4.01 µM | TK-10 4.66 µM | U-251 4.8 µM | UACC-257 5.58 µM | UACC-62 6.9 µM | UO-31 2.47 µM
4.63 µM: HCT-15

O=C1OC(c2ccccc2)=N/C1=C\c1cn[nH]n1
inactive: 786-0 > 100 µM | A498 > 100 µM | A549 > 100 µM | ACHN > 100 µM | CAKI-1 > 100 µM | CCRF-CEM 97.1 µM | COLO 205 > 100 µM | DU-145 > 100 µM | EKVX > 100 µM | HCC 2998 > 100 µM | HCT-116 > 100 µM | HL-60 > 100 µM | HOP-62 > 100 µM | HOP-92 > 100 µM | HT-29 > 100 µM | Hs-578T > 100 µM | IGROV-1 > 100 µM | K562 > 100 µM | KM12 > 100 µM | LOX IMVI > 100 µM | M14 > 100 µM | MCF7 > 100 µM | MDA-MB-231 > 100 µM | MDA-MB-435 > 100 µM | MDA-N > 100 µM | MOLT-4 > 100 µM | Malme-3M 83.4 µM | NCI-H226 > 100 µM | NCI-H23 > 100 µM | NCI-H460 > 100 µM | NCI/ADR-RES > 100 µM | OVCAR-3 > 100 µM | OVCAR-4 > 100 µM | OVCAR-5 > 100 µM | OVCAR-8 > 100 µM | PC-3 > 100 µM | RPMI-8226 > 100 µM | RXF 393 > 100 µM | SF-268 > 100 µM | SF-295 > 100 µM | SF-539 70.1 µM | SK-MEL-28 > 100 µM | SK-MEL-2 > 100 µM | SK-OV-3 > 100 µM | SN12C > 100 µM | SNB-19 > 100 µM | SNB-75 > 100 µM | SR 59.6 µM | SW-620 > 100 µM | T47D > 100 µM | TK-10 > 100 µM | U-251 > 100 µM | UACC-257 > 100 µM | UACC-62 > 100 µM | UO-31 > 100 µM
> 100 µM: HCT-15
